Earlier results as cited in patent US8609359B2, “Methods for determining the concentration of gamma-hydroxy butyric acid (GHB) in a sample” (Bühlmann Laboratories AG, priority 2009, dated 2013).

Experiments:
[1] = system: GHB receptor; conditions: for GHB-appropriate responding: animals
[2] = effects can resolve quite suddenly
[3] = target: GABAB receptor (Homo sapiens, UniProt Q9UBS5)
[4] = in 1 ml of water
[5] = when consumed with food

Chain of GABAB receptor (Q9UBS5 15-961 limits assumed): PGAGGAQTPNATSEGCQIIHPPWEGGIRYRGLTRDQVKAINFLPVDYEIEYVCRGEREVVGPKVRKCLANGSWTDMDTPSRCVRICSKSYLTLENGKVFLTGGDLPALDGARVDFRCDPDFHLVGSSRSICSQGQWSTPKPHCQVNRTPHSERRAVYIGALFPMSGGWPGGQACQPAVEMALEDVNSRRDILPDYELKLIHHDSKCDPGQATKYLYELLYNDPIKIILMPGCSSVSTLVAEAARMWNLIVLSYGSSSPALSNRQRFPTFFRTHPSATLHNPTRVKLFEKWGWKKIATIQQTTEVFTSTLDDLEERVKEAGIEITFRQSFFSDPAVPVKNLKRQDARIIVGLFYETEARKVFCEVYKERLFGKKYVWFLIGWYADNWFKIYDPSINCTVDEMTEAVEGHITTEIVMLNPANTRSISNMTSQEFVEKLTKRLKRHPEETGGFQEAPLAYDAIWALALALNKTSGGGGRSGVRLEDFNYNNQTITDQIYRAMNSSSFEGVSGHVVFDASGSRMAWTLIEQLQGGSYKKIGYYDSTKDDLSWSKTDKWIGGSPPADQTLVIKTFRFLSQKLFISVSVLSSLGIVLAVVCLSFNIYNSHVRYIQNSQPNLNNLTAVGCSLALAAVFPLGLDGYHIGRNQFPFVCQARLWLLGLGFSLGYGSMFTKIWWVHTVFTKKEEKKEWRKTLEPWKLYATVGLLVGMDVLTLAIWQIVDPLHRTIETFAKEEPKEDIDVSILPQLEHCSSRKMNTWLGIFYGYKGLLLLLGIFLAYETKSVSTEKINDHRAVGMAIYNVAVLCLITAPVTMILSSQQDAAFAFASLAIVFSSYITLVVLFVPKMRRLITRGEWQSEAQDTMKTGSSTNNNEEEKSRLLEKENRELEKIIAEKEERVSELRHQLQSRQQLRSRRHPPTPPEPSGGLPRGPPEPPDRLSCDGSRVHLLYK
Chain of GABAB receptor (O75899 42-941 partner): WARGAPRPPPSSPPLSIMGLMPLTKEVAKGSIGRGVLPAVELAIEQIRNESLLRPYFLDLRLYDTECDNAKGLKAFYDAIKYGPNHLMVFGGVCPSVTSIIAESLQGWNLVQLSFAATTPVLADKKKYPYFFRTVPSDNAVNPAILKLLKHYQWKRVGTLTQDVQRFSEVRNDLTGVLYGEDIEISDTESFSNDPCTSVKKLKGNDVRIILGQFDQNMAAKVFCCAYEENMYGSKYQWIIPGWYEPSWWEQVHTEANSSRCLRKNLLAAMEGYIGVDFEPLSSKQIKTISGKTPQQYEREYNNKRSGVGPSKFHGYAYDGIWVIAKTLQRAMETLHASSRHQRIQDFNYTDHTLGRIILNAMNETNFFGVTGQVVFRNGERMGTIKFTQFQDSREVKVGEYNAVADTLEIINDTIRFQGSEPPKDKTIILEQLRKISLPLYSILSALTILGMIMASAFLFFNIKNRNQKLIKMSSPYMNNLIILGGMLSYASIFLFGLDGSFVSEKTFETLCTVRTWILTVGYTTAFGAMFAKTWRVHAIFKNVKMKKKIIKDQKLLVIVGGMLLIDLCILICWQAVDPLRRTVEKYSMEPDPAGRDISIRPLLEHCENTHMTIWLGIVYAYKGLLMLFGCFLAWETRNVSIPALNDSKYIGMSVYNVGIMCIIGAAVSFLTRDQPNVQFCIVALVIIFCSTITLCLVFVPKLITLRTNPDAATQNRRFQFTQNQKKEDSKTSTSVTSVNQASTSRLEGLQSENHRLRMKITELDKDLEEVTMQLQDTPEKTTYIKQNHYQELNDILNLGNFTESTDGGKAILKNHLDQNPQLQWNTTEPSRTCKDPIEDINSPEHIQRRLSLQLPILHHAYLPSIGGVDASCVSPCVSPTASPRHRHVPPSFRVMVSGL

**Q.** Which results are given for `O=C(O)CCC(O)Cc1ccc(Cl)cc1` (stereo not shown) [4-(p-chlorobenzyl)-GHB]?
**A.** convulsions in animals [1]: cause convulsions in animals; GHB-appropriate responding [1]: do not produce GHB-appropriate responding

**Q.** What does the source list for `O=C(O)CCCO` [GHB, 4-hydroxybutanoic acid]?
**A.** duration of the effects [2]: about four; affinity for GABAB receptor [3]: relatively weak affinity

**Q.** For `O=C([O-])CCCO.[Na+]` [sodium GHB], which “amount of sodium GHB that can be dissolved” value [4] is on record?
**A.** More than 1 g

**Q.** And the bioavailability [5]?
**A.** considerably reduced

**Q.** For `O=C(O)/C=C/CO` [trans-4-hydroxycrotonic acid], which GHB-appropriate responding [1] is on record?
**A.** do not produce GHB-appropriate responding
